From patent US20260306460A1, “COMPOSITION FOR REMOVING AND INHIBITING SENESCENT CELLS, AND USES THEREOF” (LIFECEUTIX CO., LTD., priority 2023, published 2026)

Assays:
[1] = system: HMGN1 secreted from senescent A549 cells; assay: HMGN1 secretion (ELISA) from senescent A549 cells, Example 18, Table 14; format: cell-based, human; settings: doxorubicin-senescent A549, without test compound (DMSO) = 100%; 30 μM (LX-5211, LX-5433, LX-6530, LX-6800, LX-9105, LX-9118, LX-9131, LX-9136, LX-9302, LX-9321, LX-9565, LX-9602 at 90 μM; LX-9336 at 2.4 mM)
Procedure: On the other hand, in cancer cells treated with doxorubicin, where senescence was induced, the amount of HMGN1 measured under conditions where cells were not treated with the test compound was calculated as 100%, and the amount of HMGN1 was measured under conditions where the senescent cancer cells were treated with the test compound.

senescent cells = assay: Viability of senescent cells (CellTiter-Glo), Example 17, Table 13; settings: doxorubicin-induced senescent cells, 0 μM = 100
Procedure: Cells induced to undergo senescence by doxorubicin treatment were treated with test compound at designated concentrations and measured using the CellTiter-Glo Luminescent Cell Viability Assay (Promega).

senescent A549 cells = assay: Viability of senescent A549 cells (CellTiter-Glo), Example 18, Table 15; settings: doxorubicin-induced senescent A549 cells, 0 μM = 100%
Procedure: Senescence-induced cancer cells treated with doxorubicin were treated with the test compound at designated concentrations, and cell viability was measured using the CellTiter-Glo Luminescent Cell Viability Assay (Promega).

[2] = system: HMGN1 secreted from senescent cells; assay: HMGN1 secretion (ELISA) from doxorubicin-induced senescent cells, Example 17; format: cell-based, human; settings: senescent untreated = 100%; 30 μM; 90 μM for LX-5211, 5433, 6530, 9105, 9118, 9321, 9602; 2.4 mM for LX-9336
[3] = system: carbon tetrachloride-induced liver fibrosis mice; assay: Carbon tetrachloride-induced liver fibrosis mice, Example 31, Table 57; format: in vivo, mouse; settings: CCl4-induced liver fibrosis mice, untreated = 100%
Method in brief: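 Mice with induced hepatic fibrosis received either the test compound or, as controls, an equal volume of vehicle solution alone. Once dosing ended, liver tissue was harvested and total RNA was isolated. cDNA was synthesized from this RNA, and quantitative RT-PCR was run on it to measure hepatic mRNA levels of the fibrosis- and senescence-related genes.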

naturally aged mice = assay: Anti-aging evaluation in naturally aged mice, Example 31, Table 55; format: in vivo, mouse; settings: for Femur Ctsk mRNA / Kidney Agtr1a mRNA / Liver IL6 mRNA / Liver MMP3 mRNA / Liver p16 mRNA / Open Field Test Time in Center: untreated = 100%; for Heart Sur2a mRNA / Joint Col2a1 mRNA / Skin Col1a1 mRNA / Skin SDF1 mRNA: untreated = 1.0; for Muscle Mass: untreated 0.64 g; for Fat Mass: untreated 0.82 g; for Cataract incidence: untreated 83%;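 for all read-outs here: Vehicle-dosed control mice received solution alone at matching volume, values compare test-compound-treated aged mice against that control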
[4] = system: bleomycin-induced pulmonary fibrosis mice; assay: Bleomycin-induced pulmonary fibrosis mice, Example 31, Table 56; format: in vivo, mouse; settings: untreated = 100%
Method in brief: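 Mice with bleomycin-induced pulmonary fibrosis, untreated or given test compound, with vehicle-only controls. Lung tissue collected for RNA extraction and qRT-PCR analysis.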

Row | Compound | HMGN1 [1] | Survival (%) (senescent cells; 1.1 μM) | Survival (%) (senescent cells; 10 μM) | Survival (%) (senescent cells; 30 μM) | Survival (%) (senescent cells; […]) | Survival (%) (senescent A549 cells; 1.1 μM) | Survival (%) (senescent A549 cells; 10 μM) | Survival (%) (senescent A549 cells; 30 μM) | Survival (%) (senescent A549 cells; […]) | HMGN1 [2] | also measured
1 | CCO[C@@H](Cc1ccc(OCCn2c(C)ccc2-c2ccc(SC)cc2)cc1)C(=O)[O-].CCO[C@@H](Cc1ccc(OCCn2c(C)ccc2-c2ccc(SC)cc2)cc1)C(=O)[O-].[Mg+2] [LX-9717, Saroglitazar Magnesium] | 231% | 101.2% | 73.5% | 21.5% | 92.7% | 94.6% | 75.4% | 10.4% | 87.6% | 226% | –
2 | Batiraxcept [LX-6982] | 306% | 95.1% | 74.6% | 10.5% | 86.8% | 90.9% | 77.8% | 6.9% | 88.9% | 234% | –
3 | Nc1cc(COc2c(Cl)cc(C[C@H](N)C(=O)O)cc2Cl)c2oc(-c3ccccc3)nc2c1 [LX-6233, Nanvuranlat] | 228% | 83.7% | 32.7% | 11.3% | 61.2% | 91.8% | 34.5% | 10.1% | 72.4% | 241% | –
4 | O=C1C2=C(CCN(Cc3ccccc3)C2)N2CCN=C2N1Cc1ccc(C(F)(F)F)cc1 [LX-7263] | 283% | 49.2% | – | – | 0.9% | 53.6% | – | – | 11.1% | 267% | –
5 | Mirvetuximab [LX-7622] | – | 99.1% | 75.7% | 17.7% | 94.1% | 88.6% | 71.1% | 4.3% | 81.0% | 293% | –
6 | CN(CC(=O)Nc1nc2ccc(OC(F)(F)F)cc2s1)C(=O)CNC(=O)CN [LX-6216, Troriluzole] | 237% | 94.5% | 68.8% | 24.3% | 87.5% | 93.8% | 53.1% | 14.6% | 87.5% | 221% | –
7 | CCCCCCCCCCCCCCCCCCCC(=O)N[C@H]1CC[C@@]2(C)[C@@H](C1)C[C@@H](O)[C@@H]1[C@@H]2C[C@H](O)[C@]2(C)[C@@H]([C@H](C)CCC(=O)O)CC[C@@H]12 [LX-9343, Icomidocholic acid] | 274% | 101.2% | 74.2% | 30.5% | 84.2% | 103.7% | 74.4% | 11.9% | 104.0% | 305% | –
8 | Farletuzumab [LX-7621] | 237% | 86.3% | 78.2% | 50.2% | 82.1% | 91.5% | 69.7% | 14.4% | 78.4% | 304% | –
9 | COC[C@]1(CO)C(=O)[C@H]2CC[N@]1[C@H](C)C2 [LX-5731, (1R,2R,4S,6R)-2-(hydroxymethyl)-2-(methoxymethyl)-6-methylquinuclidin-3-one] | 307% | 98.8% | 48.2% | 11.7% | 89.8% | 94.4% | 30.6% | – | 83.1% | 235% | Liver p16 mRNA [3]: 60 (±6.5) %; Col1a1 mRNA [3]: 64 (±10.4) %; Femur Ctsk mRNA (naturally aged mice): 44%; Heart Sur2a mRNA (naturally aged mice): 2.5 fold; Joint Col2a1 mRNA (naturally aged mice): 2.7 fold; Kidney Agtr1a mRNA (naturally aged mice): 49%; Liver IL6 mRNA (naturally aged mice): 42%; Liver MMP3 mRNA (naturally aged mice): 77%; Liver p16 mRNA (naturally aged mice): 58%; Open Field Test Time in Center (naturally aged mice): 237%; Skin Col1a1 mRNA (naturally aged mice): 2.3 Fold; Skin SDF1 mRNA (naturally aged mice): 2.0 fold; Muscle Mass (naturally aged mice): 0.71 g; Fat Mass (naturally aged mice): 1.01 g; Cataract incidence (naturally aged mice): 72%; Lung p16 mRNA [4]: 69 (±3.7) %; Col1a1 mRNA [4]: 62 (±13.8) %
10 | CCCCCC/C=C\CCCCCCCCCC(=O)N[C@H]1[C@H](OC[C@H]2O[C@H](OP(=O)([O-])[O-])[C@H](NC(=O)CC(=O)CCCCCCCCCCC)[C@@H](OCCCCCCCCCC)[C@@H]2O)O[C@H](COC)[C@@H](OP(=O)([O-])[O-])[C@@H]1OCC[C@@H](CCCCCCC)OC.[Na+].[Na+].[Na+].[Na+] [LX-9136, Eritoran tetrasodium] | 296% | 84.6% | 71.1% | 23.1% | 76.9% | 91.1% | 70.9% | 44.8% | 83.4% | 263% | Survival (%) (senescent A549 cells; 90 μM): 6.7%
11 | CCNCc1nc2c(O)c(Cl)cc(Cl)c2c(=O)n1C [LX-9421] | 284% | 92.1% | 67.9% | 25.9% | 89.3% | 102.9% | 62.3% | 20.7% | 83.3% | 201% | Liver p16 mRNA [3]: 59 (±5.4) %; Col1a1 mRNA [3]: 34 (±3.7) %; Femur Ctsk mRNA (naturally aged mice): 44%; Heart Sur2a mRNA (naturally aged mice): 2.1 fold; Joint Col2a1 mRNA (naturally aged mice): 2.8 fold; Kidney Agtr1a mRNA (naturally aged mice): 46%; Liver IL6 mRNA (naturally aged mice): 41%; Liver MMP3 mRNA (naturally aged mice): 32%; Liver p16 mRNA (naturally aged mice): 57%; Open Field Test Time in Center (naturally aged mice): 222%; Skin Col1a1 mRNA (naturally aged mice): 2.3 Fold; Skin SDF1 mRNA (naturally aged mice): 2.6 fold; Muscle Mass (naturally aged mice): 0.78 g; Fat Mass (naturally aged mice): 0.99 g; Cataract incidence (naturally aged mice): 54%; Lung p16 mRNA [4]: 35 (±1.6) %; Col1a1 mRNA [4]: 40 (±2.0) %
12 | Sulforadex [LX-7104] | 246% | 88.5% | 45.7% | 2.8% | 75.7% | 103.3% | 58.7% | 18.1% | 81.2% | 287% | –
13 | CC(=O)[O-].CC(=O)[O-].CCc1c(CC)c2cc3nc(cnc4cc(OCCOCCOCCOC)c(OCCOCCOCCOC)cc4ncc4nc(cc1[n-]2)C(CCCO)=C4C)C(C)=C3CCCO.O.[Gd+3] [LX-5211, Motexafin Gadolinium] | 262% | 97.6% | 92.7% | 87.1% | 95.2% | 102.8% | 88.1% | 49.2% | 98.8% | 253% | Survival (%) (senescent cells; 90 μM): 22.7%; Survival (%) (senescent A549 cells; 90 μM): 16.6%
14 | CN1CCc2c(c3ccccc3n2Cc2ccc(C(=O)NO)cc2)C1 [LX-5352, Tubastatin A] | 210% | 87.9% | 32.4% | 1.9% | 61.6% | 97.6% | 51.8% | 22.2% | 87.5% | 194% | –
